# Activity calls are given as the source filed them. Square brackets hold non-standard residues; d marks the D form. Peptide text beside a SMILES is read from it. * marks the point of attachment. ξ: configuration not given here. Cbz = O=C(OCc1ccccc1)*; OBn = c1ccc(CO*)cc1; ξP = O=C(O)C1CCCN1
# Columns and labels:
# [1] = target: T1, RNA-binding protein pos-1 (Caenorhabditis elegans, UniProt G5EF15); experiment: disruptors of C. elegans POS-1 RNA interaction – biochemical, fluorescence polarization, dose response (AID 1964);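 further: purified POS-1 fused to maltose binding protein made in E. coli; potency of compounds blocking POS-1 binding to fluorescent RNA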
# T1 sequence (G5EF15 whole entry): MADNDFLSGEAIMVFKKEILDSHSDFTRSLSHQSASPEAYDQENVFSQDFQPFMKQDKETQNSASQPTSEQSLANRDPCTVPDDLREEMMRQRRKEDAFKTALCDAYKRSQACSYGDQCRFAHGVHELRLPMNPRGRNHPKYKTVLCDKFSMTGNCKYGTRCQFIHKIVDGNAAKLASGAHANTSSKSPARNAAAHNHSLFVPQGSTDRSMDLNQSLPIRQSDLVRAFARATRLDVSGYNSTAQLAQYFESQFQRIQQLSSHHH
# [2] = tested on: Streptococcus sp. 'group A'; experiment: Streptococcus pyogenes SK(-)GAS viability under kanamycin – luminescence, BacTiterGlo, confirmation, counter-screen for streptokinase expression inhibitor project, dose response (AID 1900); assay type: functional, organism-based
# [3] = target: T2, Zinc finger protein mex-5 (Caenorhabditis elegans, UniProt Q9XUB2); experiment: potency of MEX-5 RNA-binding blockers – biochemical, C. elegans, fluorescence polarization, dose response (AID 1960)
# T2 sequence (Q9XUB2 whole entry): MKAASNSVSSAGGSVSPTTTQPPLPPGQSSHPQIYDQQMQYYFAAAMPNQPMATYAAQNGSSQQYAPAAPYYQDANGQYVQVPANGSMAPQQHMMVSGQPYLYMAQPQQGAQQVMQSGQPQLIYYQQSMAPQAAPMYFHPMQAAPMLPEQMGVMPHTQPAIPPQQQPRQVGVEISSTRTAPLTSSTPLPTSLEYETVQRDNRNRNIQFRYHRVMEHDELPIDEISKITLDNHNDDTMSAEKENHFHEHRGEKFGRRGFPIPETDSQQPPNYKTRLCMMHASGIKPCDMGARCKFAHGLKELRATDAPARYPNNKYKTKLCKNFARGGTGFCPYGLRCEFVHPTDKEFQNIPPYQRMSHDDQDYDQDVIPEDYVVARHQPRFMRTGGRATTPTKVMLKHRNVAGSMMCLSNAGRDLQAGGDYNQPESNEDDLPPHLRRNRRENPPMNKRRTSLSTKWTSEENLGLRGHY
# Streptococcus = experiment: GAS UMAA2166 growth inhibition – luminescence, BacTiterGlo, counter-screen for streptokinase expression inhibitor project, dose response (AID 1915); assay type: functional, organism-based;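 further: potency for reduction of bacterial viability or growth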
# Cytochrome P450 2C19 = Cytochrome P450 2C19 (Homo sapiens, UniProt P33261); experiment: Cytochrome panel assay with activity outcomes. Panel member name: p450-cyp2c19 Compounds with AC50 equal or less than 10 uM are considered active; assay type: functional
# Cytochrome P450 2D6 = Cytochrome P450 2D6 (Homo sapiens, UniProt P10635);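 further: CYP2D6 member of a cytochrome P450 panel assay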
# Cytochrome P450 1A2 = target: T3, Cytochrome P450 1A2 (Homo sapiens, UniProt P05177);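 further: PubChem cytochrome P450 panel assay, CYP1A2 panel member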
# T3 sequence (P05177 whole entry): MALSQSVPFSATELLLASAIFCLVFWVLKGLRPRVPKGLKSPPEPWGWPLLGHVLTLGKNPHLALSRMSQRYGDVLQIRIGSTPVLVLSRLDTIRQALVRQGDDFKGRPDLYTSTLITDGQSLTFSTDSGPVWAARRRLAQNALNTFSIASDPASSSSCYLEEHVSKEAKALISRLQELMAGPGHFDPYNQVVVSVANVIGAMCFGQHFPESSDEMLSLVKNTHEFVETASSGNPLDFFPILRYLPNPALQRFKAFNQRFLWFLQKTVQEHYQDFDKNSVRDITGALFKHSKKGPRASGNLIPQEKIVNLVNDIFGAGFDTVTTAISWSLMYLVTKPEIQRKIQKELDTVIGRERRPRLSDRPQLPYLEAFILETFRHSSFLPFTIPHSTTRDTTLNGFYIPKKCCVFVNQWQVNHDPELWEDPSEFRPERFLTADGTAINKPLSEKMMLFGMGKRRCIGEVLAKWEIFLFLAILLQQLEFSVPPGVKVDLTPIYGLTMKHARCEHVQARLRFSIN
# Cytochrome P450 3A4 = Cytochrome P450 3A4 (Homo sapiens, UniProt P08684);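 further: CYP3A4 tested as one member of a cytochrome P450 panel screen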
# Protein RecA = target: T4, Protein RecA (Mycobacterium tuberculosis, UniProt P9WHJ3); experiment: Fluorescence Cell-Free Homogeneous Dose Retest to Identify Inhibitors of RecA-Intein Splicing Activity. [Related pubchem assays (depositor defined):AID2097, AID2223, AID489010, AID492950]; assay type: functional
# T4 sequence (P9WHJ3 whole entry): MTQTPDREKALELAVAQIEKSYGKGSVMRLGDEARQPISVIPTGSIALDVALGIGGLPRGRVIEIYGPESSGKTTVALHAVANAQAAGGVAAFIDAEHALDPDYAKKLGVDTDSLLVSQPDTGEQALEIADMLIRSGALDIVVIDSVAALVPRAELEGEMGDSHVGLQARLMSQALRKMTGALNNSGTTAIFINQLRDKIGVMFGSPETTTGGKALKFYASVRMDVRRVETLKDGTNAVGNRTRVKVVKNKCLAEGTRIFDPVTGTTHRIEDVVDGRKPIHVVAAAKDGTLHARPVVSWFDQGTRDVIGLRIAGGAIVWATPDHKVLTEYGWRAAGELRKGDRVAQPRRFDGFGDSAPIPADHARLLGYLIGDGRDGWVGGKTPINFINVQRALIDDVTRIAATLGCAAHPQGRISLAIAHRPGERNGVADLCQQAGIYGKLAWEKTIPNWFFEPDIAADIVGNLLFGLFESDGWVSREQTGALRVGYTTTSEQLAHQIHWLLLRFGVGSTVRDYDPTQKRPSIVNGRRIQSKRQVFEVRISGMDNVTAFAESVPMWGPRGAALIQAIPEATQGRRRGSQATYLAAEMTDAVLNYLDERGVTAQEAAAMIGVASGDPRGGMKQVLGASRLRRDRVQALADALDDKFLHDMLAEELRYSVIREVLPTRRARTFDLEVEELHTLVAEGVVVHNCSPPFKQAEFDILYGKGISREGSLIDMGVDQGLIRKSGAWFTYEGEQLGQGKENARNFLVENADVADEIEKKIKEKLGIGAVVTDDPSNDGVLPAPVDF
# [4] = target: T5, Replicative DNA helicase DnaB (Mycobacterium tuberculosis, UniProt P9WMR3); experiment: DnaB intein splicing inhibitors, dose response, biochemical, cell-free fluorescence (AID 449749); assay type: functional
# T5 sequence (P9WMR3 whole entry): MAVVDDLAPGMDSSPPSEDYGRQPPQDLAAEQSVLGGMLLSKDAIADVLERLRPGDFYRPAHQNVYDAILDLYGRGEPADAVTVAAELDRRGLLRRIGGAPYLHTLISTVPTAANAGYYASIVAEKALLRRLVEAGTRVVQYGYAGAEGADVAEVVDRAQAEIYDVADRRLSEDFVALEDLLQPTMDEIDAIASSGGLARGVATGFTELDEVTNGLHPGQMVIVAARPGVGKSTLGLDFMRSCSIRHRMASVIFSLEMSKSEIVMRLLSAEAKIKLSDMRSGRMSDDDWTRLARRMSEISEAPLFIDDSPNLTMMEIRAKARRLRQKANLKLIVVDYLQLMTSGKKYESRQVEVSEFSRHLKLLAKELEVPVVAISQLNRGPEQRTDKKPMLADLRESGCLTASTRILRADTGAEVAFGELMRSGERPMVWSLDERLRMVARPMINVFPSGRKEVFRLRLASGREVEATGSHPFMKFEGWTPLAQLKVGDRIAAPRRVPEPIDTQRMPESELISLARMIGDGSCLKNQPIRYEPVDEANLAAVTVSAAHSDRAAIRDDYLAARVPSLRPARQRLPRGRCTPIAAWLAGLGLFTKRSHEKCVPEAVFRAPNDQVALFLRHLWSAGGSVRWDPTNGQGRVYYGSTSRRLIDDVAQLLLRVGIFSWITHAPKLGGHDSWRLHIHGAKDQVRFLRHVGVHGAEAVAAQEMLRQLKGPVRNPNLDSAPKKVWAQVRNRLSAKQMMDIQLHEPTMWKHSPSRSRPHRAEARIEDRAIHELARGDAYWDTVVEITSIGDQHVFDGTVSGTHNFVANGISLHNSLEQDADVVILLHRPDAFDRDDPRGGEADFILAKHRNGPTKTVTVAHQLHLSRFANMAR
# Cytochrome P450 2C9 = Cytochrome P450 2C9 (Homo sapiens, UniProt P11712)
# Cytochrome P450 2C9, sequence (P11712 whole entry): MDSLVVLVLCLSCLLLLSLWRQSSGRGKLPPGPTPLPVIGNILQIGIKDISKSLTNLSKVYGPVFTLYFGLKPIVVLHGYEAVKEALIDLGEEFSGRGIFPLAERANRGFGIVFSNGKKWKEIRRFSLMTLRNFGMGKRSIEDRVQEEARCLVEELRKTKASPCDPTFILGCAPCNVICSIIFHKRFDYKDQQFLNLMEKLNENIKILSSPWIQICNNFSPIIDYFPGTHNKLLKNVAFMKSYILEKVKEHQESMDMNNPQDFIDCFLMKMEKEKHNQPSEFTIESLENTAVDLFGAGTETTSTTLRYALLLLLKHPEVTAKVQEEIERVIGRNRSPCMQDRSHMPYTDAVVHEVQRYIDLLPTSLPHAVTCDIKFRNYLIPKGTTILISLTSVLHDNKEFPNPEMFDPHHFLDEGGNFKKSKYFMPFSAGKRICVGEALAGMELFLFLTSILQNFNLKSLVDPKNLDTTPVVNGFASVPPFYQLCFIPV
# Cytochrome P450 2D6, sequence (P10635 whole entry): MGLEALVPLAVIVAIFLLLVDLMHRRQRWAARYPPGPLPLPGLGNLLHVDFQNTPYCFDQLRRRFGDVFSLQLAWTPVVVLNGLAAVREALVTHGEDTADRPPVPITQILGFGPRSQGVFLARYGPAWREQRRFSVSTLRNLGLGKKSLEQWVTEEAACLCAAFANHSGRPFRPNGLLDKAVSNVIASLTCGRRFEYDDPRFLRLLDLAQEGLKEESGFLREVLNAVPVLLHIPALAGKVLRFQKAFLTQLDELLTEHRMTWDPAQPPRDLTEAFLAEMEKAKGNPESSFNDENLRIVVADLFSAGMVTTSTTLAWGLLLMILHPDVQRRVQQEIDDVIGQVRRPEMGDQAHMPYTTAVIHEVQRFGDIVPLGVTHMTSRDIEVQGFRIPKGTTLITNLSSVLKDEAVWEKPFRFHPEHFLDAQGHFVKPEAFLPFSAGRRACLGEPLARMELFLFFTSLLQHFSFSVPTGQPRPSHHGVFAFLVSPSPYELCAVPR
# Cytochrome P450 2C19, sequence (P33261 whole entry): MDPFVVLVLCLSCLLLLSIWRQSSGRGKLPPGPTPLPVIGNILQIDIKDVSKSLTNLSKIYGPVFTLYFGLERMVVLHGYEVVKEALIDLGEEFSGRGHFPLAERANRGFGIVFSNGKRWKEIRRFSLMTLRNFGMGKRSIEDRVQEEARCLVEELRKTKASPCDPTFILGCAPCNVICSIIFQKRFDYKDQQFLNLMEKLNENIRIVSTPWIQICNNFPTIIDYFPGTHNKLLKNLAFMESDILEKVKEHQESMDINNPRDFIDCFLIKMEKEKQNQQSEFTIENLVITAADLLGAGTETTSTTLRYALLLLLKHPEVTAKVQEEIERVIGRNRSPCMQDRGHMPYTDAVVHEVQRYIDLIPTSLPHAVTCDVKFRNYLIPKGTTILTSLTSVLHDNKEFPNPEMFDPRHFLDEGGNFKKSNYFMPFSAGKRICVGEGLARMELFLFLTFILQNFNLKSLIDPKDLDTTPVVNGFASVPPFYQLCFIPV
# Cytochrome P450 3A4, sequence (P08684 whole entry): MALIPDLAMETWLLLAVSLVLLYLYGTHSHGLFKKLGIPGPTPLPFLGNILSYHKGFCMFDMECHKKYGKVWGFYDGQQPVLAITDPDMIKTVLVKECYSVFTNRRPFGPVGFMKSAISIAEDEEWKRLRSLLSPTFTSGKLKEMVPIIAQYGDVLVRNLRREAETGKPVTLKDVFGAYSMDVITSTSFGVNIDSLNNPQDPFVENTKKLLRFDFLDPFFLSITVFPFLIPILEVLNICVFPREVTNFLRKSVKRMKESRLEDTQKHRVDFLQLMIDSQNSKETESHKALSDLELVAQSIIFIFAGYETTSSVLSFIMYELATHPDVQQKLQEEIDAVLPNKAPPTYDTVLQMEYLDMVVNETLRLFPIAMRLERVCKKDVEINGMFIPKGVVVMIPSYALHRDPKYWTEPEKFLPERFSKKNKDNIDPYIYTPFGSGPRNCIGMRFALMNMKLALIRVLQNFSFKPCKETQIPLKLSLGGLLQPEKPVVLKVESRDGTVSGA
Structure (SMILES),EC50 [1],EC50 [3],AC50 (Cytochrome P450 2C19; read-out: AC50),further results
CCOC(=O)N1CCN(C(=O)c2ccc3c(c2)NC(=O)/C(=C\c2ccc(OC)c(OC)c2)S3)CC1,> 300 µM (not active),> 300 µM (inconclusive),,EC50 [2]: 0.875 µM (active); EC50 (Streptococcus): 5.67 µM (active)
O=C(O)c1cc(-n2cccc2)ccc1N1CCOCC1,> 300 µM (not active),74.3 µM (active),,
CCN1CCN(c2nc3c(c(=O)[nH]c(=O)n3C)n2CCCSc2ncccn2)CC1,,,,AC50 (Cytochrome P450 2C19): inconclusive
NC(=O)c1ccsc1N,10.9 µM (active),10.1 µM (inconclusive),,
Clc1ccc2c(N[C@H]3CC[C@H](N4CCCCC4)CC3)ccnc2c1,,,,AC50 (Cytochrome P450 2C19): inconclusive; AC50 (Cytochrome P450 2D6): 3.98 µM (inconclusive)
COc1ccc2[nH]c(SCC(=O)Nc3nonc3C)nc2c1,18.4 µM (active),20.7 µM (inconclusive),,
Cc1cccc(N(C)S(=O)(=O)c2nnc(NC(=O)c3ccco3)s2)c1,> 300 µM (not active),> 300 µM (not active),,
Cc1nc(-c2cccc(NC(=O)c3cc4cc(Br)ccc4oc3=O)c2)cs1,,,20 µM (inconclusive),AC50 (Cytochrome P450 1A2): 8.91 µM (inconclusive); AC50 (Cytochrome P450 3A4): 10 µM (inconclusive)
COCCNC(=O)CCn1c(=O)oc2ccccc21,,,1.41 µM (inconclusive),
O=C(NNC(=O)c1ccccc1[N+](=O)[O-])c1cnccn1,76.5 µM (active),1.25 µM (active),,
CC(C)CS(=O)(=O)C1=NN2C(=N)/C(=C\c3ccc(OC(=O)c4ccco4)cc3)C(=O)N=C2S1,,,,EC50 (Protein RecA): 14.4 µM (active)
C=CCn1c(-c2cccnc2Cl)nc2ccccc21,,,,AC50 [4]: > 380 µM (inactive); EC50 (Protein RecA): > 380 µM (inactive)
CC(C)(C)NC(=O)C(c1ccc(Cl)cc1)N(Cc1ccco1)C(=O)CCl (stereo unspecified),,,,AC50 [4]: 24.1 µM (active); EC50 (Protein RecA): 1.97 µM (active)
O=C(/C=C/c1c(Cl)cccc1Cl)N1CCOCC1,> 300 µM (not active),> 300 µM (not active),,
O=C1[C@H]2[C@H]3[C@H](O)[C@H](O)C/C(=N/OCc4ccccc4)[C@@H]3CC[C@@H]2C(=O)N1Cc1ccc2c(c1)OCO2,,,3.98 µM (inconclusive),
Cc1ccccc1N=Nc1c(O)n(C)c2ccccc12,> 300 µM (not active),> 300 µM (not active),,
Cc1ccc2occ(/C=C/C(=O)O)c(=O)c2c1,,,28.2 µM (inconclusive),AC50 (Cytochrome P450 2D6): 15.8 µM (inconclusive); AC50 (Cytochrome P450 3A4): 22.4 µM (inconclusive); AC50 (Cytochrome P450 2C9): 25.1 µM (inconclusive)
c1ccc(N2CCCC3(CCNCC3)C2)cc1,,,15.8 µM (inconclusive),AC50 (Cytochrome P450 3A4): 25.1 µM (inconclusive)
COC(=O)c1ccc(-n2c(C)ccc2-c2ccccc2)cc1,> 300 µM (not active),> 300 µM (not active),,
O=C(NNS(=O)(=O)c1ccc(Cl)cc1)NC1CCCCC1,,,10 µM (inconclusive),AC50 (Cytochrome P450 2C9): 17.8 µM (inconclusive)
O=C(OCn1nnc2ccccc2c1=O)c1cccnc1,,,25.1 µM (inconclusive),AC50 (Cytochrome P450 1A2): 17.8 µM (inconclusive); AC50 (Cytochrome P450 2C9): 25.1 µM (inconclusive)
CCC(=O)N1CCn2c1nc1ccccc12,,,28.2 µM (inconclusive),AC50 (Cytochrome P450 2C9): 1.41 µM (inconclusive)
C=CCSc1nnc2c(n1)OC(c1c(C)[nH]n(-c3ccccc3)c1=O)Nc1ccccc1-2 (stereo unspecified),,,8.91 µM (inconclusive),AC50 (Cytochrome P450 2D6): 0.158 µM (inconclusive); AC50 (Cytochrome P450 1A2): 15.8 µM (inconclusive)
FC(F)(F)c1nc2ccccc2nc1N/N=C\c1ccccc1,,,39.8 µM (inconclusive),AC50 (Cytochrome P450 2D6): 14.1 µM (inconclusive); AC50 (Cytochrome P450 2C9): 20 µM (inconclusive)
Oc1cccc(/C=N/N=C/c2cccc(O)c2O)c1O,42.9 µM (active),24.6 µM (active),,
O=C(CNC(=O)OCc1ccccc1)NCC(=O)N1CCCC1C(=O)OCc1ccccc1 (stereo not drawn) (Cbz-Gly-Gly-[ξP]-OBn),,,0.0355 µM (inconclusive),AC50 (Cytochrome P450 3A4): 17.8 µM (inconclusive)
